Assay results as given in US8828997B2, “2,3-dihydro-1H-imidazo(1,2-a)pyrimidin-5-one derivatives, preparation thereof, and pharmaceutical use thereof” (Sanofi, priority 2009, dated 2014).

Assays:
Assay type in all cases: cell-based
[1] = system: AKT protein phosphorylated on serine 473 (pAKT-S473) in PC3 human prostate carcinoma cells; experiment: pAKT expression in PC3 human prostate carcinoma cells measured by western blotting (test A); details: PC-3, 1 to 2 h incubation, absolute IC50
Protocol: The inhibitory activity of the molecules on AKT phosphorylation is measured either by western blotting using the technique described below, or by the MSD Multi-spot Biomarker detection technique from Meso Scale Discovery also described below.
Study of pAKT Expression in PC3 Human Prostate Carcinoma Cells Measured by Western Blotting (test A):
This test is based on measuring the expression of the AKT protein phosphorylated on serine 473. The phosphorylation of AKT (pAKT) is measured by western blotting in the PC3 human prostate carcinoma line (ATCC CRL-1435), using an antibody that specifically recognises pAKT-S473.
On day 1, the PC3 cells are seeded into 6-well plates (TPP, #92006) at the concentration of 0.8×10^6 cells/well in 1800 μl of DMEM medium (DMEM Gibco #11960-044) containing 10% of foetal calf serum (SVF Gibco, #10500-056) and 1% glutamine (L-Glu Gibco #25030-024), and incubated at 37° C., 5% CO2, overnight.
On day 2, the cells are incubated in the presence or absence of the test products for 1 to 2 hours at 37° C. in the presence of 5% CO2. The molecules, diluted in dimethyl sulphoxide (DMSO Sigma #D2650), are added from a 10-times concentrated stock solution, the final percentage of DMSO being 0.1%. The molecules are tested either at a single concentration of less than or equal to 10 μM, or at increasing concentrations in a range that can extend from less than 1 nM to 10 μM.
After this incubation, the cells are lysed for the preparation of the proteins. After the culture medium has been drawn off, the cells are rinsed with 1 ml of PBS (DPBS Gibco, #14190-094), recovered by scraping in 200 μl of complete HNTG buffer and transferred into a 96-well plate (Greiner #651201), and lysed for 1 h on ice. The HNTG buffer is composed of the following mixture: 50 mM hepes, 150 mM NaCl, 1% triton, 10% glycerol, with extemporaneous addition of one Mini Protease Inhibitor Cocktail tablet (Roche 1836153) and of one Phosphatase Inhibitor Cocktail tablet (Roche104906837001) per 10 ml of buffer.
The lysate is centrifuged for 10 min at 6000 rpm. 155 μl of supernatant are recovered. 150 μl are incubated for denaturation for 5 min at 95° C. in the presence of 4× NuPAGE LDS Sample Buffer diluted 4-fold (InVitrogen ref NP0007) and of 10× NuPAGE Sample Reducing Agent diluted 10-fold (InVitrogen ref NP0009). These samples are then frozen at −20° C. 5 μl are assayed by the microBCA technique according to the technical bulletin of the MicroBCA Protein Assay Kit (Pierce #23235).
For protein separation, 20 μg of proteins are loaded on to a NU-PAGE 4-12% Bis Tris Gel 12 well (InVitrogen ref NP0322BOX) and the migration is carried out for 1 h 30 in 20× NU-PAGE MOPS SDS Running Buffer diluted 20-fold (InVitrogen ref NP0001), at 150 volts.
The gel is then transferred on to an Invitrolon PVDF membrane (Invitrogen #LC2007) permeabilised before and after a few seconds in ethanol (Ethanol Fischer Scientific #E/0600DF/15).
The transfer is carried out in a Biorad tank at 30 volts overnight or at 60 volts for 3 hours, in the presence of 20× NUPAGE Transfer Buffer diluted 20-fold (InVitrogen ref NP0006).
The membrane is then saturated in saturating solution composed of TBS (10× Tris Buffered Saline, Sigma #T5912, diluted 10-fold), 0.1% Tween 20 (Sigma #P5927) and 3% BSA (Bovine Albumin Serum Fraction V, Sigma #A4503) for 6 h after overnight transfer or else for 1 h after transfer for a period of 3 h.
The primary antibodies are diluted to 1/1000 for the anti-phospho AKT-Ser473 antibody (1931-12, rabbit monoclonal, cat#4058 from Cell Signaling Technology Abcam), in saturating solution composed of PBS, 0.1% Tween 20 and 3% BSA, and then shaken overnight at 4° C.
Two rinses for 5 min in washing solution composed of TBS and 0.1% Tween 20 are carried out before hybridisation of the secondary antibodies. […]

[2] = system: translocation of the LC3 protein in Hela GFP-LC3 cells; experiment: Translocation of the LC3 protein in Hela human cells measured by image analysis cytometry (test C, autophagy); details: Homo sapiens, HeLa, 2 h, EBSS + 10 μM hydroxychloroquine, cells with LC3 granulations, absolute IC50
Summary of the method: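 HeLa clone stably expressing GFP-LC3, starved in EBSS with 10 μM hydroxychloroquine plus compound (10 nM to 1 μM range, 0.1% DMSO) for 2 h at 37 °C. After PFA fixation and Hoechst staining, LC3 translocation read by image analysis cytometry; IC50 from dose-response curves, mean of 2 independent experiments.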

[3] = system: P. falciparum (highly chloroquine-resistant strain Fcm29-Cameroon); experiment: Antimalarial activity test (radioactive micromethod of Desjardins, tritiated hypoxanthine incorporation); details: Plasmodium falciparum, Erythrocyte, infected human erythrocytes, 48 h
Summary of the method: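 P. falciparum cultured in infected human erythrocytes (2% haematocrit, 1.5% parasitaemia) in RPMI 1640 with 5% human serum and 1% DMSO, exposed to compound for 48 h at 37 °C, 5% CO2. Tritiated hypoxanthine added at 24 h; growth inhibition versus drug-free incorporation, reported as % at 1 μM and 0.1 μM.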

| Compound | IC50 [1] [nM] | IC50 [2] [nM] | inhibition at 0.1 µM [3] [%] | inhibition at 1 µM [3] [%] |
| --- | --- | --- | --- | --- |
| CC(Cc1ccccc1)N1c2nc(N3CCOCC3)cc(=O)n2C[C@@]1(C)C(F)(F)F (single isomer, unassigned) [Example 12, (2S)-2-Methyl-1-((R) or (S)-1-methyl-2-phenylethyl)-7-morpholin-4-yl-2-trifluoromethyl-2,3-dihydro-1H-imidazo[1,2-a]pyrimidin-5-one] | 77 | 194 |  |  |
| C[C@@]1(C(F)(F)F)Cn2c(nc(N3CCOCC3)cc2=O)N1Cc1ccccc1 [Example 3, (S)-1-Benzyl-2-methyl-7-morpholin-4-yl-2-trifluoromethyl-2,3-dihydro-1H-imidazo[1,2-a]pyrimidin-5-one] | 634 | 493 | 15 | 95 |
| C[C@@]1(C(F)(F)F)Cn2c(nc(N3CCOCC3)cc2=O)N1CCc1ccccc1 [Example 4, (S)-2-Methyl-7-morpholin-4-yl-1-phenethyl-2-trifluoromethyl-2,3-dihydro-1H-imidazo[1,2-a]pyrimidin-5-one] | 25 | 107 | 54 | 97 |
| C[C@@]1(C(F)(F)F)Cn2c(nc(N3CCOCC3)cc2=O)N1CCCc1ccccc1 [Example 5, (S)-2-Methyl-7-morpholin-4-yl-1-(3-phenylpropyl)-2-trifluoromethyl-2,3-dihydro-1H-imidazo[1,2-a]pyrimidin-5-one] | 30 | 73 |  |  |
| C[C@@]1(C(F)(F)F)Cn2c(nc(N3CCOCC3)cc2=O)N1CCOc1ccccc1 [Example 6, (S)-2-Methyl-7-morpholin-4-yl-1-(2-phenoxyethyl)-2-trifluoromethyl-2,3-dihydro-1H-imidazo[1,2-a]pyrimidin-5-one] | 1640 | 81 |  |  |
| C[C@@H](CN1c2nc(N3CCOCC3)cc(=O)n2C[C@@]1(C)C(F)(F)F)c1ccccc1 [Example 8, (S)-2-Methyl-7-morpholin-4-yl-1-((R)-2-phenylpropyl)-2-trifluoromethyl-2,3-dihydro-1H-imidazo[1,2-a]pyrimidin-5-one] | 15 | 13 |  |  |
| C[C@@]1(C(F)(F)F)Cn2c(nc(N3CCOCC3)cc2=O)N1C[C@@H](O)c1ccccc1 [Example 10] | 16 | 31 | 38 | 97 |
| C[C@@]1(C(F)(F)F)Cn2c(nc(N3CCOCC3)cc2=O)N1CCc1ccc(N2CCOCC2)cc1 [Example 15, (S)-2-Methyl-7-morpholin-4-yl-1-[2-(4-morpholin-4-ylphenyl)ethyl]-2-trifluoromethyl-2,3-dihydro-1H-imidazo[1,2-a]pyrimidin-5-one] | 121 | 72 | 39 | 101 |
